What was measured:
[1] = Protein binding in human plasma assessed as unbound fraction at 2 uM by rapid equilibrium dialysis method; type: ADME, cell-free
[2] = Clearance in Sprague-Dawley rat assessed as hepatic blood flow at 1 mg/kg, iv; type: ADME, organism-based, Liver; details: in vivo
Aurora kinase A = Aurora kinase A (Homo sapiens, UniProt O14965); assay: Binding affinity to wild-type human partial length AURKA (E122 to K401 residues) expressed in mammalian expression system by Kinomescan method
Aurora kinase A, sequence (O14965 whole entry, the tested form may be a part): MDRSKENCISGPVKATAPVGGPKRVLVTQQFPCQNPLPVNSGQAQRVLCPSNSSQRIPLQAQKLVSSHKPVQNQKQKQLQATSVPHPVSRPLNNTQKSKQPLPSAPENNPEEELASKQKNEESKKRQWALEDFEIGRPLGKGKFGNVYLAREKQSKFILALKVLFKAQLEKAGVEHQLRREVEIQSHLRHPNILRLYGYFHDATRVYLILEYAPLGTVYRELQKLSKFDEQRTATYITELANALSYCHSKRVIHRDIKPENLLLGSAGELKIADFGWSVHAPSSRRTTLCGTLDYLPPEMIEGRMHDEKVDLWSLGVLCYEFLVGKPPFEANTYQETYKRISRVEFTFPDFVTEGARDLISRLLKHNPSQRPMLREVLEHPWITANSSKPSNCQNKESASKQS

[3] = biological target: Voltage-gated inwardly rectifying potassium channel KCNH2 (Homo sapiens, UniProt Q12809); assay: Inhibition of human ERG by patch clamp method; type: toxicity
Voltage-gated inwardly rectifying potassium channel KCNH2, sequence (Q12809 whole entry): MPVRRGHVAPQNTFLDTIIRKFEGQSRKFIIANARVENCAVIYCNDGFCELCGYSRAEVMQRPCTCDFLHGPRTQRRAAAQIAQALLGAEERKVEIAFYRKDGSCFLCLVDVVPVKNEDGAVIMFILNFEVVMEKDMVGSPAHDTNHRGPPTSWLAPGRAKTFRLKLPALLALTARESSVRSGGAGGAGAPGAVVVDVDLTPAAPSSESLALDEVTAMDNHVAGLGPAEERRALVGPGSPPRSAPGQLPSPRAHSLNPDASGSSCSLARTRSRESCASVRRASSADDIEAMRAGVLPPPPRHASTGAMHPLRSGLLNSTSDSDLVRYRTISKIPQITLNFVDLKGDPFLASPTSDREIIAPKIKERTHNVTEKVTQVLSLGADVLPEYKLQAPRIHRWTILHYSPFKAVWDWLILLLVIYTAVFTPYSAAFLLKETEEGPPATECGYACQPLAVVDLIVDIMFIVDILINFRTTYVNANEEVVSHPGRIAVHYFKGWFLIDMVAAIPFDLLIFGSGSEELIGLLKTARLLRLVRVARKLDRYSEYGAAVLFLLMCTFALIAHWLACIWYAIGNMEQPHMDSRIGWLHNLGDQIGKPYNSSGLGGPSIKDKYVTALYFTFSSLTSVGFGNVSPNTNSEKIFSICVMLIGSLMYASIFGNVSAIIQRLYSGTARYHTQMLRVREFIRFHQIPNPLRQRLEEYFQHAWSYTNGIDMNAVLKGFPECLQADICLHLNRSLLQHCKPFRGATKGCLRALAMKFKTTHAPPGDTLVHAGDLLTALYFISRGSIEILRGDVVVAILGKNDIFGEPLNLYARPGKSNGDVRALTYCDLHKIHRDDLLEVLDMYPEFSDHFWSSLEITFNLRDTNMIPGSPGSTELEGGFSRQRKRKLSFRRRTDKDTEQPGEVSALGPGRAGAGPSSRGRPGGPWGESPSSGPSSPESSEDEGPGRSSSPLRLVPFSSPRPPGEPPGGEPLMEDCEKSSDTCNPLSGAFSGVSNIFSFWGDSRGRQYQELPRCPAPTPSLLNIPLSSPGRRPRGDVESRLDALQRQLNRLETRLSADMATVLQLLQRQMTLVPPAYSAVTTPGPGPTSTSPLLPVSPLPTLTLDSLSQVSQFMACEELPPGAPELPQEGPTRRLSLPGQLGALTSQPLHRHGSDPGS

[4] = In vivo toxicity in Sprague-Dawley rat assessed as compound related toxicity at 500 mg/kg after 28 days; type: organism-based; details: 672 h, time 28 day
[5] = In vivo toxicity in Sprague-Dawley rat assessed as compound related pathology findings at 500 mg/kg after 28 days; type: organism-based; details: 672 h, time 28 day
CD63 antigen = CD63 antigen (Homo sapiens, UniProt P08962); assay: Inhibition of CD63 (unknown origin) assessed as FcepsilonR induced basophil activation
CD63 antigen, sequence (P08962 whole entry): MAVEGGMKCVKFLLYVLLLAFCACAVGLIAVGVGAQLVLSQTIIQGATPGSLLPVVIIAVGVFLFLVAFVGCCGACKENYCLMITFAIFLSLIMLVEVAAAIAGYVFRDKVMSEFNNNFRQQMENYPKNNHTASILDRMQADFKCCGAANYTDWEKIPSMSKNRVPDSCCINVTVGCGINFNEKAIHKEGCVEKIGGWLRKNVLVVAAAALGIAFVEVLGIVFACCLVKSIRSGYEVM

[6] = In vivo inhibition of BTK-dependent B cell activation in C57BL/6 mouse immunized with NP-Ficoll assessed as reduction in anti-NP IgM antibody titer at 0.3 mg/kg, po BID dosed for 10 days; type: functional; parameters: scale not given: the % may be the effect or the level left; details: time 10 day
[7] = In vivo toxicity in Sprague-Dawley rat assessed as NOAEL after 28 days; type: organism-based; details: time 28 day
Bile salt export pump = Bile salt export pump (Homo sapiens, UniProt O95342); assay: Inhibition of BSEP (unknown origin) at >30 uM
Bile salt export pump, sequence (O95342 whole entry): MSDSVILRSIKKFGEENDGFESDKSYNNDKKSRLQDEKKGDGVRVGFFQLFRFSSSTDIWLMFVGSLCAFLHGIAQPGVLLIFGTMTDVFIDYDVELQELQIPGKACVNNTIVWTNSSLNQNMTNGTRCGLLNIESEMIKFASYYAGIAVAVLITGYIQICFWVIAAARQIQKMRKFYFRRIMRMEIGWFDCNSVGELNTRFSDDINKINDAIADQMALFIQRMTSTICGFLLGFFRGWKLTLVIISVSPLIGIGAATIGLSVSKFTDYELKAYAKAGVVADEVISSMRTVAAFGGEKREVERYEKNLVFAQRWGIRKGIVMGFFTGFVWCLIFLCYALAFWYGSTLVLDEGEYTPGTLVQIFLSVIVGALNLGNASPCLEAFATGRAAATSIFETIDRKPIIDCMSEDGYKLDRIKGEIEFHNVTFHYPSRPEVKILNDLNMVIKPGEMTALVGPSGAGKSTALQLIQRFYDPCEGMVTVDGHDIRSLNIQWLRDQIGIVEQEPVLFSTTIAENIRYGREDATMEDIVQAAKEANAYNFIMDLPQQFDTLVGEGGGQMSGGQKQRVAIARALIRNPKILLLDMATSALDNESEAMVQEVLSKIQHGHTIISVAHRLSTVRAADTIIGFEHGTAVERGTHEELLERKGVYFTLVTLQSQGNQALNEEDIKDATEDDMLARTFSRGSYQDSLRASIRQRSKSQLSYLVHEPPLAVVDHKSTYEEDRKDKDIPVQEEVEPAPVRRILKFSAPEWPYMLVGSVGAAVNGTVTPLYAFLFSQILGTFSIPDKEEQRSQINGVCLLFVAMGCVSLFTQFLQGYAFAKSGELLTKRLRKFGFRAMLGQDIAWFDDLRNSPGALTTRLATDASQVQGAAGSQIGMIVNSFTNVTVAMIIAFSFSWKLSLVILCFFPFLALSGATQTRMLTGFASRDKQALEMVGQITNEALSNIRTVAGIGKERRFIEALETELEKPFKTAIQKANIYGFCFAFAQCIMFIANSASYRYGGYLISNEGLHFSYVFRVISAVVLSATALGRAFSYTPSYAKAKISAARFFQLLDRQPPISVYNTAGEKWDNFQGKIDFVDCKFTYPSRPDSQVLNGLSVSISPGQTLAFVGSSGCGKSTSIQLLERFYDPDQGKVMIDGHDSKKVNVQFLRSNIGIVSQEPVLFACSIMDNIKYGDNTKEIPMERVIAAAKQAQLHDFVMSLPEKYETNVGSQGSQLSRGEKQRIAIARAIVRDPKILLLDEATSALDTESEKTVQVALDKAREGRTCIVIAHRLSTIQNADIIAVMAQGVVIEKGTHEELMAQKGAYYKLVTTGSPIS

[8] = biological target: Broad substrate specificity ATP-binding cassette transporter ABCG2 (Homo sapiens, UniProt Q9UNQ0); assay: Inhibition of BCRP (unknown origin) at >30 uM
Broad substrate specificity ATP-binding cassette transporter ABCG2, sequence (Q9UNQ0 whole entry): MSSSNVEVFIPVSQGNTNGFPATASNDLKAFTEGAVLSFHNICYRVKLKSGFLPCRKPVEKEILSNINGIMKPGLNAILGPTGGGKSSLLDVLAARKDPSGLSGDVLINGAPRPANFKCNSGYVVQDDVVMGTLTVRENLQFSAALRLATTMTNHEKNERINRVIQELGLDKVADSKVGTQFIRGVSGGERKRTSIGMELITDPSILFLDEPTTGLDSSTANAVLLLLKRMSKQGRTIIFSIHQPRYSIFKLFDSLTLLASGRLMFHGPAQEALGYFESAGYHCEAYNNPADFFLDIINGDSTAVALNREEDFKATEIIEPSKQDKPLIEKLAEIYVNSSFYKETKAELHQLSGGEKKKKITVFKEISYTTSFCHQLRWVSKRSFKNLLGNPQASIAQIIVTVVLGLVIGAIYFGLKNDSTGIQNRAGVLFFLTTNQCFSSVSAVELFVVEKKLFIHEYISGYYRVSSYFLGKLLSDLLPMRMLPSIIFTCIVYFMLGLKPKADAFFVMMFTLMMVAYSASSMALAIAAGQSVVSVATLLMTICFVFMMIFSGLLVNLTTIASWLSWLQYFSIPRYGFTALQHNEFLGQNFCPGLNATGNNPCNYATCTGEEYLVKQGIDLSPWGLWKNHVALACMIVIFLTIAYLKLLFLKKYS

[9] = Protein binding in human plasma assessed as unbound fraction; type: ADME, cell-free
[10] = Protein binding in monkey plasma assessed as unbound fraction; type: ADME, cell-free, Macaca mulatta; details: rhesus monkey
Cytochrome P450 2D6 = Cytochrome P450 2D6 (Homo sapiens, UniProt P10635); assay: Inhibition of CYP2D6 in human liver microsomes at 10 to 50 uM; type: ADME; details: dose 10-50 µM
Cytochrome P450 2D6, sequence (P10635 whole entry): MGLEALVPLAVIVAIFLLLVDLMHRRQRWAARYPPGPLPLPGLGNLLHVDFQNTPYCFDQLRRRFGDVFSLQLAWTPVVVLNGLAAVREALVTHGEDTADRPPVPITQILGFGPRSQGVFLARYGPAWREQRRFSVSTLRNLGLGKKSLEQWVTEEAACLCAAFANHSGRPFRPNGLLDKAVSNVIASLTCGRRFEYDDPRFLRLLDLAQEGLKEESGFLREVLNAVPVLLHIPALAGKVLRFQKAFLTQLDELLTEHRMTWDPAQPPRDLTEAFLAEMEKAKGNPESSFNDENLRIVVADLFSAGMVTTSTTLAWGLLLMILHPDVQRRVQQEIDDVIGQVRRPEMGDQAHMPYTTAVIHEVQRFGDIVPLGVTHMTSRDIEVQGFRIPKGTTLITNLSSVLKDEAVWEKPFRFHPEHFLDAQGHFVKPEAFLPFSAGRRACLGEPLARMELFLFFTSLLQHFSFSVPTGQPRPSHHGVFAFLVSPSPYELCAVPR

[11] = Protein binding in rat plasma assessed as unbound fraction; type: ADME, cell-free
Liver = assay: Drugmetabolism in dog liver microsomes assessed as metabolite formation; type: ADME, Canis lupus familiaris, Microsome
[12] = Drugmetabolism in cynomolgus monkey liver microsomes assessed as metabolite formation; type: ADME, Macaca fascicularis, Microsome
[13] = Drugmetabolism in cynomolgus monkey hepatocytes assessed as metabolite formation; type: ADME, cell-based, Macaca fascicularis, Hepatocyte
[14] = Drugmetabolism in human hepatocytes assessed as metabolite formation; type: ADME, cell-based, Hepatocyte

With `Cn1cc(Nc2nccc(-c3ccc4c(c3)CN(C3COC3)CC[C@H]4NC(=O)c3cn(C(C)(C)C)nn3)n2)cn1` [BIIB-091] the fraction unbound at 2 µM [1] was 0.26, the QH [2] was 22% and the Kd (Aurora kinase A) was 660 nM. For the same compound, the IC50 [3] was greater than 25000 nM, the Activity [4] was “Non-Toxic” and the Activity [5] was “Non-Toxic”. For the same compound, the IC50 (CD63 antigen) was 82 nM, the Activity [6] was 59% and the NOAEL at 672 h [7] was 500 mg/kg. For the same compound, the “inhibition (INH)” value (Bile salt export pump) was “Not Active”, the “inhibition (INH)” value [8] was “Not Active” and the fraction unbound [9] was 0.26. For the same compound, the fraction unbound [10] was 0.19, the “inhibition (INH)” value (Cytochrome P450 2D6) was “Not Active” and the fraction unbound [11] was 0.1. For the same compound, the Drug metabolism (Liver) was “Metabolite_Notdetected”, the Drug metabolism [12] was “Metabolite_Notdetected” and the Drug metabolism [13] was “Metabolite_Notdetected”. The Drug metabolism [14] was “Metabolite_Notdetected”.

From ChEMBL document CHEMBL5042486, “Discovery and Preclinical Characterization of BIIB091, a Reversible, Selective BTK Inhibitor for the Treatment of Multiple Sclerosis” (J Med Chem, 2022)
